# According to US20060252723A1, “Combined therapy utilizing reduction of DNA methyltransferase expression and/or activity and interferon” (Methylgene, Inc. The Cleveland Clinic Foundation, priority 2005, published 2006):
# Tests used:
# [1] = test system: RASSF1A; test: RT-PCR for RASSF1A; assay type: cell-based, human; conditions: ACHN cells; data not shown
# [2] = test system: ACHN cells; test: TUNEL flow cytometric analysis of apoptosis; assay type: cell-based, human; conditions: for resistance to IFN-induced apoptosis after pretreatment: FIG. 2A; for apoptosis, agent alone: FIG. 2B
# Method: After the indicated time of DNMT1 inhibition cells were plated at 5000 cells/cm^2 for TUNEL assay with IFNs added 16 hr after plating. Four to 5 days after IFN administration cells were harvested and processed according to the manufacturer's instructions for TUNEL flow cytometric analysis (BD Pharmingen, San Diego, Calif.).
# [3] = target: T1, DNMT1 protein (Homo sapiens, UniProt P26358); test: DNMT1 protein immunoblot after DNMT1 AS or 5-AZA-dC treatment; assay type: cell-based; conditions: ACHN cells; 40 nM DNMT1 AS daily over 9 days or 200 nM 5-AZA-dC daily over 4 days; protein 4, 24, 48 hrs after last treatment
# T1 construct: endogenous in cells; host or cells: ACHN renal cell carcinoma cells
# T1 sequence (P26358 whole entry): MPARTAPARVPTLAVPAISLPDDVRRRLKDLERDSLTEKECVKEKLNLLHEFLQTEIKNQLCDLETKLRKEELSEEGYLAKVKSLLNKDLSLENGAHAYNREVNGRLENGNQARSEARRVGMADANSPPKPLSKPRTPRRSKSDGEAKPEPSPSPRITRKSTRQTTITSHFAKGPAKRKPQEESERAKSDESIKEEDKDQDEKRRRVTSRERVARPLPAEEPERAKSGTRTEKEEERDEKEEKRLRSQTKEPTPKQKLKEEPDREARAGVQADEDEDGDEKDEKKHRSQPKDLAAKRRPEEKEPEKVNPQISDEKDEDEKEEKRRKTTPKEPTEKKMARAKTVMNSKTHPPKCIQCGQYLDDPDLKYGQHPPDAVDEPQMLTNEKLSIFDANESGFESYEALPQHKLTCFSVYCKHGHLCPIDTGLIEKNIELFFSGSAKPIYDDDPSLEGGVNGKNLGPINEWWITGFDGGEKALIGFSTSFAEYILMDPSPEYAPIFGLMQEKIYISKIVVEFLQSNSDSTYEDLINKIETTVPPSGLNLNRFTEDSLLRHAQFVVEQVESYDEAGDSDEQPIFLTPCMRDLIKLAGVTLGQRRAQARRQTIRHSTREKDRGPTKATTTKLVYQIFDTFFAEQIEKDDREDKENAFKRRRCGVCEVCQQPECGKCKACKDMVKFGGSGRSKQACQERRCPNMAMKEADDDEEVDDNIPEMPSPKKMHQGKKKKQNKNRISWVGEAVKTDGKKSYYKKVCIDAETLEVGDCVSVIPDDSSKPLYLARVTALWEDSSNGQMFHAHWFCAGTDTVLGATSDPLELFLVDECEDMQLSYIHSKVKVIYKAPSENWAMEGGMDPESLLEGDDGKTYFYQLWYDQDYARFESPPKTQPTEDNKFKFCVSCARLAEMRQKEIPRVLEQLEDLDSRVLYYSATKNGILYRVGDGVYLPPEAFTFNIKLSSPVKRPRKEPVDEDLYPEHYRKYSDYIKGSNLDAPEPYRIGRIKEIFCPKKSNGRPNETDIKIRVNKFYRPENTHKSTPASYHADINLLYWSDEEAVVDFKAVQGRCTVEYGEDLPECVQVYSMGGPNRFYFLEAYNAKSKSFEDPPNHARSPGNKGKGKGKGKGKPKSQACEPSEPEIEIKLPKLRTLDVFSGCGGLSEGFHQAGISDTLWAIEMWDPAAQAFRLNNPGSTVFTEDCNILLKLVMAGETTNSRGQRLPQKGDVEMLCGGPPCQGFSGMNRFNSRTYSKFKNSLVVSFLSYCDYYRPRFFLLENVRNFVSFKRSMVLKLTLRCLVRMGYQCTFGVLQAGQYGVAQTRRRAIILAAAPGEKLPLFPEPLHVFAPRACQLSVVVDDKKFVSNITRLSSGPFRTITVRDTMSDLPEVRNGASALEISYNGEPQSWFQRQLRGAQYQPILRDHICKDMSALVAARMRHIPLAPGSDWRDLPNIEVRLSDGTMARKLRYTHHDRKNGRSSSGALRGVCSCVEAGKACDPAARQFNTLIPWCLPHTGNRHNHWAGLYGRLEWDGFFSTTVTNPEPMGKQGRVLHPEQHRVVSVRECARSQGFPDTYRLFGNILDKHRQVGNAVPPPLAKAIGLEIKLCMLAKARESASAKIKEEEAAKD
# Method: ACHN Renal cell carcinoma cells were cultured at 37° C. in 5% CO2 using Minimum Essential Medium (GIBCO, Invitrogen, Carlsbad, Calif.) with 0.1 mM non-essential amino acids (GIBCO), 1.0 mM pyruvate (GIBCO), 10% fetal bovine serum, penicillin G (50 U/ml), and streptomycin (50 μg/ml). WM9 melanoma cells (13) were grown in RPMI medium (GIBCO) containing 10% fetal bovine serum, penicillin G (50 U/ml), and streptomycin (50 μg/ml) under the same incubator conditions.
# To selectively downregulate DNMT1, cells were transfected with MG98 (MethylGene, Quebec, Canada), a second-generation 4×4 2′methyl phosphorothioate oligonucleotide antisense against the 3′ UTR of DNMT1 mRNA (5′-[…]-3) or mismatch (underlined) control oligonucleotide (5′-[…]-3′) (SEQ ID NO:40) at indicated concentrations starting one day after plating at 15000 cells/cm^2. Transfections were performed daily with 6.25 μg/ml Lipofectin (Invitrogen, Carlsbad, Calif.) in OptiMem (GIBCO, Invitrogen, Carlsbad, Calif.) over 4 hr. Before and after transfections cells were washed once with PBS. Every second day cells were replated at 15000 cells/cm^2 four hr after the preceding transfection. 5-AZA-dC (Sigma-Aldrich, St Louis, Mo.) stock solution (100 mM) in DMSO and working solutions for one time use in PBS (1 mM) were stored at −20° C. […]
# [4] = test system: ACHN cells; test: real-time RT-PCR for stat1, stat2 genes; assay type: cell-based, human
# [5] = test system: ACHN cells; test: cDNA array analysis (Affymetrix U133A); assay type: cell-based, human
# From the text: To identify additional genes reactivated through DNA demethylation and of potential importance for the sensitization to IFN-induced apoptosis we performed cDNA array analysis with RNA harvested from ACHN cells 24 hr after the 8th DNMT1 AS transfection and 16 hr after 50 U/ml IFN β 1a treatment. RNA was harvested as mentioned above using Trizol (Invitrogen, Carlsbad, Calif.) method followed by transcription into cRNA, according to Affymetrix (Santa Clara, Calif.) recommendations for U133A array hybridization. Expression was analyzed using Affymetrix software.
# [6] = test system: ACHN cells; test: growth of ACHN cells (data not shown); assay type: cell-based, human
# [7] = test system: RASSF1A promoter region; test: methylation specific PCR of RASSF1A; assay type: cell-based, human; conditions: ACHN cells
# Method: One microgram of genomic DNA, harvested with a blood DNA mini kit (Quiagen, Valencia, Calif.), was used for bisulfite modification with the CpGenome kit (Chemicon International, Temecula, Calif.) according to the manufacturer's instructions with final resuspension in 20 μl of 10 mM Tris/Ci, pH 8.5. Four μl of bisulfite modified DNA was used per 25 μl MSP reaction. Primers for RASSF1A MSP as published (15) were (5′ to 3′): M forward: GGG TTT TGC GAG AGC GCG (SEQ ID NO:41), M reverse: GCC AAG CGC AAA CAA TCG (SEQ ID NO:42), U forward: GGT TIT GTG AGA GTG TGT TTA G (SEQ ID NO:43), U reverse: AAACCAAACACAAACAATCAC (SEQ ID NO:44). PCR settings for methylated (M) primer pair were denaturation at 95° C. for 5 min, followed by 35 cycles with a 1 min denaturation step, 30 sec annealing at 60° C., and extension at 72° C. for 30 sec. Final extension after 35 cycles was at 72° C. for 4 min. For sequences specific for unmethylated (U) DNA settings were the same except for annealing at 55° C.
# [8] = test system: caspase 3; test: caspase 3 activity assay; assay type: cell-based, human; conditions: FIG. 3; pretreatment alone
# [9] = test system: tumour xenograft models; test: tumour xenograft models; assay type: in vivo; conditions: daily dosing compared to intermittent administration
# [10] = Phase I studies of MG98, toxicity
molecule,measurement,setting,value
"5′-TTAATGTAACCTAAGGTCAA-3′ (listed as DNA, chemistry not given here) [MM, mismatch control oligonucleotide]",amplification of full length RASSF1A cDNA,[1],no band
same,cells apoptotic on TUNEL staining (up to),"[2]; 5-AZA-dC over 24 days or oligonucleotide transfection over 6 to 8 days, then 50 U/ml IFN α or IFN β, 4-5 days after IFN",not
same,resistance to IFN-induced apoptosis after pretreatment,[2],did not
same,"apoptosis, agent alone",[2],did not result in significant apoptosis
"5′-UUCATGTCAGCCAAGGCCAC-3 (all phosphorothioate, sugars by position and methylation of C not given here; 2'-O-methyl gapmer) [MG98]",DNMT1 protein,[3],suppressed up to 48 hrs
same,"stat1 expression, fold change over untreated",[4],0.27 fold
same,"stat2 expression, fold change over untreated",[4],1.05 fold
same,number of genes increased at least two-fold compared to the mismatch oligonucleotide,"[5]; DNMT1 AS alone, data not shown",One hundred and thirty-seven
same,expression of genes known to be involved in IFN-induced apoptosis,[5]; Table 2,not significantly altered
same,reduction in DNMT1 expression,[5]; compared to mismatch oligonucleotide,94%
same,expression of other DNMTs,"[5]; compared to mismatch oligonucleotide, data not shown",without affecting expression of other DNMTs
same,increase of IFN-stimulated gene IF127 over MM treated cells,[5]; p<0.045,at least two-fold
same,"Fold change in expression, Caspase 4",[5]; relative to MM,1.41 (MI) fold
same,"Fold change in expression, HSXIAPAF1 (XAF1)",[5]; relative to MM,3.36 (NS) fold
same,"Fold change in expression, IRF1",[5]; relative to MM,1.32 (NS) fold
same,"Fold change in expression, OAS1",[5]; relative to MM,0.80 (NS) fold
same,"Fold change in expression, PRKR (PKR)",[5]; relative to MM,0.71 fold
same,"Fold change in expression, Stat1",[5]; relative to MM,0.60 fold
same,"Fold change in expression, Stat2",[5]; relative to MM,0.68 (NS) fold
same,"Fold change in expression, TNFSF10 (TRAIL/Apo2L)",[5]; relative to MM,0.93 (NS) fold
same,growth,[6],reduced
same,methylation of RASSF1A promoter region,[7],led to demethylation
same,amplification of full length RASSF1A cDNA,[1],single band
same,resistance to IFN-induced apoptosis after pretreatment,[2],overcome
same,"apoptosis, agent alone",[2],did not result in significant apoptosis
same,caspase 3 activity,[8],increased caspase 3 activity
same,anti-tumour activity,[9],greatest anti-tumour activity
same,dose levels resulting in frequent adverse events,"[10]; Phase I, 21-day infusion",above 80 mg/m^2/day
same,toxicity seen in nephrectomized patients,"[10]; intermittent schedule, 160 mg/m^2/day is 44% below the dose concerned",grade 3 transaminitis
"Nc1ncn([C@H]2C[C@H](O)[C@@H](CO)O2)c(=O)n1 [5-AZA-dC, 5-aza-deoxycytidine, reference compound]",DNMT1 protein,[3],suppressed up to 48 hrs
same,"stat1 expression, fold change over untreated",[4],0.57 fold
same,"stat2 expression, fold change over untreated",[4],1.38 fold
same,resistance to IFN-induced apoptosis after pretreatment,[2],overcome
same,TUNEL positive,"[2]; agent alone, no IFN, 5-AZA-dC 4 days",20%
same,caspase 3 activity,[8],increased caspase 3 activity
